Structures can show the parent of a compound that is named as a salt.
Tests used:
Parkinson's disease [1] = conditions: patients undergoing treatment with L-Dopa; cited from earlier work
[2] = in water at 20° C.; cited from earlier work
rabbits = experiment: Skin irritation study in rabbits, modified Draize irritation protocol; assay type: in vivo, rabbit; conditions: conclusion in words from Table 4
Protocol: The skin irritation study in rabbits using a modified Draize irritation protocol. The treatments included:
1) different activities of ropinirole in the selected vehicle that gave the highest flux of ropinirole slat; and
2) ropinirole in two selected vehicles. A proprietary vehicle that has been used in skin flux studies were tested as a control.
Mineral oil was used as the negative control in the study. The mean primary irritation score for each treatment was calculated.
3) ropinirole and base in three prototype systems (36048C, 36047G and 36040F; see Table 4 in Example 3, below).
Various ropinirole formulations were prepared and irritation studies conducted as described above.

dopamine D2 = conditions: versus bromocriptine and pergolide; cited from earlier work
Parkinson's disease [3] = conditions: statement in words; cited from earlier work

## N[C@@H](Cc1ccc(O)c(O)c1)C(=O)O [L-Dopa]
Parkinson's disease [1]
  therapeutic response fluctuations: severe therapeutic response fluctuations

## CCCN(CCC)CCc1cccc2c1CC(=O)N2 [Ropinirole hydrochloride]
[2]
  solubility: 133 mg/mL

## CCCN(CCC)CCc1cccc2c1CC(=O)N2 [ropinirole, 4-[2-(dipropylamino)ethyl]-1,3-dihydro-2H-indol-2-one]
rabbits
  irritation encountered upon transdermal administration: minimal
Dopamine D2
  specificity as dopamine D2 agonist: more specific dopamine D2 agonist than other dopamine agonists such as bromocriptine and pergolide
Parkinson's disease [3]
  effectiveness in the treatment of Parkinson's disease: effective in the treatment of Parkinson's disease
